Laboratory results as given in article PMC5440646, “T Cell Costimulation by CD6 Is Dependent on Bivalent Binding of a GADS/SLP-76 Complex” (Molecular and Cellular Biology, 2017).
Where two headings read alike, the source gives them in different places. Where a SMILES comes first, the peptide text is derived from it. Where no end group is shown, it is not given here. [ ]: non-standard residue; d: D form. The star is where a group is joined. Biotin = O=C1N[C@H]2[C@H](CS[C@H]2CCCCC(=O)*)N1; pY = N[C@@H](Cc1ccc(OP(=O)(O)O)cc1)C(=O)O

What was measured:
GRB2 SH2 = molecular target: T1, GRB2 SH2 (Homo sapiens, UniProt P62993); assay: SPR equilibrium binding of recombinant GRB2 SH2 domain to immobilized phosphopeptides; settings: 37°C
T1 construct: Recombinant His-tagged SH2 domains of GADS, GRB2, and TSAd in the popinF vector; His tag; made in house; host or cells: Escherichia coli Rosetta(DE3)/pLysS
Text: (§1) We measured the direct binding of purified monomeric SH2 domains to the phosphorylated CD6 Y629 peptide at physiological temperature using surface plasmon resonance (SPR) (Fig. 1). The sensorgram traces for all three proteins binding to phosphorylated CD6 Y629 are consistent with monomeric binding of all three proteins (Fig. 1, right). Equilibrium binding data were plotted to determine dissociation constants (KDs) (Fig. 1, left). GADS and GRB2 bound with similar KDs to phosphorylated Y629, at 1 to 3 μM and 2 to 4 μM, respectively (Fig. 1A and B and Table 2). As an indication that the recombinant proteins were active, the SH2 domains of GADS and GRB2 bound to a phosphorylated CD28-derived peptide containing the YXN motif with an affinity (KD = 2 to 3 μM) similar to that determined by previous measurements (Fig. 1 and Table 2) ([14]).
(§2) Recombinant His-tagged SH2 domains of GADS, GRB2, and TSAd in the popinF vector (provided by Louis Bird, Oxford Protein Production Facility, Harwell, Oxfordshire, UK) and SLP-76 ([1]) were expressed in Escherichia coli Rosetta(DE3)/pLysS competent cells (Novagen) and purified by nickel affinity chromatography and size exclusion chromatography. Peptides for CD6 pY662 (biotin-[…]pYDDISAA), CD6 Y629 (biotin-[…]), CD6 pY629 (biotin-SSGEWpYQNFQP), and CD28 pYMNM (biotin-LLHSDpYMNMTP) were immobilized at ∼25 response units on streptavidin-coated CM5 chips in a BIAcore 3000 machine (Peptide Protein Research Ltd., Hampshire, UK) ([1], [14]). Long CD6 peptides (biotin-[…]pYDDISAA) phosphorylated at Y629 (pY629), Y662 (pY662), or both (pY629 pY662) were immobilized at ∼50 response units. Serially diluted proteins were injected over the chip at 10 μl/min at 37°C. Background signals of proteins over a streptavidin-coated flow cell were subtracted, equilibrium binding data were plotted, and KDs for 1:1 Langmuir binding were determined.

TSAd SH2 = molecular target: T2, TSAd SH2 (Homo sapiens, UniProt Q9NP31); assay: SPR equilibrium binding of recombinant TSAd SH2 domain to immobilized phosphopeptides; settings: equilibrium binding of soluble recombinant SH2 domain to immobilized biotinylated peptide, 37°C, 1:1 Langmuir, range, n = 3 (CD28 pYMN: n = 1)
T2 construct: Recombinant His-tagged SH2 domains of GADS, GRB2, and TSAd in the popinF vector; His tag; made in house; host or cells: Escherichia coli Rosetta(DE3)/pLysS
Text: as §1
Recombinant His-tagged SH2 domains of GADS, GRB2, and TSAd in the popinF vector (provided by Louis Bird, Oxford Protein Production Facility, Harwell, Oxfordshire, UK) and SLP-76 ([1]) were expressed in Escherichia coli Rosetta(DE3)/pLysS competent cells (Novagen) and purified by nickel affinity chromatography and size exclusion chromatography. […] Background signals of proteins over a streptavidin-coated flow cell were subtracted, equilibrium binding data were plotted, and KDs for 1:1 Langmuir binding were determined.

GADS SH2 = molecular target: T3, GADS SH2 (Homo sapiens, UniProt O75791); assay: SPR equilibrium binding of recombinant GADS SH2 domain to immobilized phosphopeptides; settings: 37°C
T3 construct: Recombinant His-tagged SH2 domains of GADS, GRB2, and TSAd in the popinF vector; His tag; made in house; host or cells: Escherichia coli Rosetta(DE3)/pLysS
T3 sequence (O75791 58-149 limits assumed): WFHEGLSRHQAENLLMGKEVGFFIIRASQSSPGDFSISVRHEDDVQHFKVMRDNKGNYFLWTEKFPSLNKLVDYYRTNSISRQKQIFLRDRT
Text: as §1, §2

SLP-76 SH2 = molecular target: T4, SLP-76 SH2 (Homo sapiens, UniProt Q13094); assay: SPR equilibrium binding of recombinant SLP-76 SH2 domain to immobilized long CD6 peptides; settings: 37°C; for Kd: equilibrium binding of soluble recombinant SH2 domain to immobilized long CD6 peptides (~50 RU), range, n = 3
T4 construct: 2-fold serial dilutions of GADS (10 μM) (A) and SLP-76 (20 μM) (B) SH2 domains over the long CD6 peptides; His tag; made in house; host or cells: Escherichia coli Rosetta(DE3)/pLysS
T4 sequence (Q13094 422-530 limits assumed): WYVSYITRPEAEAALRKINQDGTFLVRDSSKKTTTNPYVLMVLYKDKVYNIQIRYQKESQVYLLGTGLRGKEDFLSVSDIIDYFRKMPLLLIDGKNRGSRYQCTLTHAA
Text: SPR analysis with long peptides containing both Y629 and Y662 phosphorylated at either or both tyrosine residues confirmed the specificity of the SH2 domains of GADS and SLP-76 for the CD6 Y629 and Y662 motifs, respectively (Fig. 3 and Table 3). […] Coprecipitation of GADS with CD6 was not observed in Jurkat (J14) cells, which lack SLP-76 (data not shown). GADS and SLP-76 interact with each other independently of their SH2 domains. A GADS SH3 domain binds to a proline-rich region of SLP-76 ([15]). This configuration means that both SH2 domains are available for bivalent binding to two phosphorylated tyrosine residues in close proximity. CD6 Y629 is the closest tyrosine residue to CD6 Y662 in the linear amino acid sequence of the cytoplasmic region.
as §2

[1] = equilibrium binding of soluble recombinant SH2 domain to immobilized biotinylated peptide (~25 RU on streptavidin-coated CM5 chip), 1:1 Langmuir, range, n = 3, read-out: KD (μM) GRB2 SH2
[2] = equilibrium binding of soluble recombinant SH2 domain to immobilized biotinylated peptide (~25 RU on streptavidin-coated CM5 chip), 1:1 Langmuir, range, n = 3, read-out: KD (μM) GADS SH2
[3] = fitted equilibrium curve of the experiment shown, 2-fold serial dilutions of GADS SH2 from 35 μM over immobilized peptide, streptavidin background subtracted, read-out: KD, GADS SH2 (Fig. 1A)
[4] = equilibrium binding of soluble recombinant SH2 domain to immobilized long CD6 peptides (~50 RU), range, n = 3, read-out: KD (μM) (range) GADS SH2

T1 sequence (P62993 60-152 limits assumed): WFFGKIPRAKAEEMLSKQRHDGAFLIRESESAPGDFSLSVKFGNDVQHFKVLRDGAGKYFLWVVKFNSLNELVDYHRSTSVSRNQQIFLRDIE
T2 sequence (Q9NP31 95-186 limits assumed): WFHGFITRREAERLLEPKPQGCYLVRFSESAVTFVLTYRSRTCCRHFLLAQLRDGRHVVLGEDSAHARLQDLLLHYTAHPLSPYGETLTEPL

## NC(=O)CC[C@H](NC(=O)[C@H](Cc1ccc(OP(=O)(O)O)cc1)NC(=O)[C@H](Cc1c[nH]c2ccccc12)NC(=O)[C@H](CCC(=O)O)NC(=O)CNC(=O)[C@H](CO)NC(=O)[C@H](CO)NC(=O)CCCC[C@@H]1SC[C@@H]2NC(=O)N[C@@H]21)C(=O)N[C@@H](CC(N)=O)C(=O)N[C@@H](Cc1ccccc1)C(=O)N[C@@H](CCC(N)=O)C(=O)N1CCC[C@H]1C(=O)O [CD6 pY629] (Biotin-SSGEW[pY]QNFQP-OH)
GRB2 SH2; [1]
  Kd: 2 to 4 µM
GRB2 SH2; fitted equilibrium curve of the experiment shown, 2-fold serial dilutions of GRB2 SH2 from 106 μM over immobilized peptide, streptavidin background subtracted, read-out: KD, GRB2 SH2 (Fig. 1B)
  Kd: 2 µM
TSAd SH2
  Kd: 26 to 58 µM
GADS SH2; [2]
  Kd: 1 to 3 µM
GADS SH2; [3]
  Kd: 1 µM

## Biotin-STSSGEWYQNFQPPPQPPSEEQFGCPGSPSPQPDSTDNDD[pY]DDISAA [pY662]
SLP-76 SH2
  Kd: 0.3 to 2 µM

## CSCC[C@H](NC(=O)[C@H](Cc1ccc(OP(=O)(O)O)cc1)NC(=O)[C@H](CC(=O)O)NC(=O)[C@H](CO)NC(=O)[C@H](Cc1c[nH]cn1)NC(=O)[C@H](CC(C)C)NC(=O)[C@H](CC(C)C)NC(=O)CCCC[C@@H]1SC[C@@H]2NC(=O)N[C@@H]21)C(=O)N[C@@H](CC(N)=O)C(=O)N[C@@H](CCSC)C(=O)N[C@H](C(=O)N1CCC[C@H]1C(=O)O)[C@@H](C)O [CD28 pYMN, reference compound] (Biotin-LLHSD[pY]MNMTP-OH)
GRB2 SH2; [1]
  Kd: 2 to 3 µM
GADS SH2; [2]
  Kd: 2 to 3 µM
GADS SH2; [3]
  Kd: 2 µM

## Biotin-STSSGEW[pY]QNFQPPPQPPSEEQFGCPGSPSPQPDSTDNDDYDDISAA [pY629]
GADS SH2; [4]
  Kd: 0.2 to 0.6 µM
SLP-76 SH2; long CD6 peptides, data not shown
  binding of the SLP-76 SH2 domain: no binding

## Biotin-STSSGEW[pY]QNFQPPPQPPSEEQFGCPGSPSPQPDSTDNDD[pY]DDISAA [pY629 pY662]
GADS SH2; [4]
  Kd: 0.1 to 2 µM
SLP-76 SH2
  Kd: 0.3 to 2 µM
